# Data reported in paper PMC3618674 (Brain research, 2012).
# Read-outs that look alike come from different tables or passages of the source.
# What was measured:
# [1] = test system: L-DOPA methylation; assay type: in vivo, rat; details: rats
# [2] = test system: L-DOPA methylation; assay: Animal experiment III: L-DOPA methylation in dopamine-depleted; assay type: in vivo, rat
# [3] = test system: HT22 mouse hippocampal neuronal cells; assay: Glutamate-induced oxidative cell death, MTT cell viability; assay type: cell-based; details: 5 mM glutamate, 24 h, co-treatment
# [4] = test system: HT22 mouse hippocampal neuronal cells; assay: Glutamate-induced intracellular ROS accumulation; assay type: cell-based; details: 5 mM glutamate
# [5] = test system: NF-κB; assay: NF-κB-Luc reporter transcriptional activity in glutamate-treated HT22 cells; assay type: cell-based, mouse; details: HT22 cells transfected with NF-κB-Luc; 5 mM glutamate, 40 μM (+)-catechin, 8 h
# [6] = test system: kainic acid-induced hippocampal neurodegeneration; assay: Animal experiment IV: kainic acid-induced rat hippocampal injury; assay type: in vivo; details: rats
# [7] = test system: 6-hydroxydopamine-induced neuronal damage; assay: 6-hydroxydopamine-induced neuronal damage model; details: data not shown
# [8] = test system: L-DOPA methylation; details: rats; for effect on plasma 3-OMD levels: 400 mg/kg i.p. 2 h before L-DOPA/carbidopa 20/5 mg/kg; for effect on striatal 3-OMD levels / effect on striatal dopamine levels: 400 mg/kg i.p., striatum at 6 h after L-DOPA/carbidopa 20/5 mg/kg
# [9] = molecular target: T1, human liver catechol-O-methyltransferase (COMT) (Homo sapiens, UniProt P21964); assay: in vitro O-methylation of L-DOPA catalyzed by human liver cytosolic COMT; assay type: biochemical
# T1 sequence (P21964 1-221 isoform P21964-2): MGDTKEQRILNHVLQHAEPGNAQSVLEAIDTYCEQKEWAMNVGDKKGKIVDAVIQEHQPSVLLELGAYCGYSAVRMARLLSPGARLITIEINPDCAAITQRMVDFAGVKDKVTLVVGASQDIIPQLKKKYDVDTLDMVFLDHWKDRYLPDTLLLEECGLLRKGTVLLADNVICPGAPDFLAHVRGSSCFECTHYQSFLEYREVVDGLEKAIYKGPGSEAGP
# [10] = in vivo; details: rat, ip, 400 mg/kg
# [11] = test system: 6-hydroxydopamine-induced neurotoxicity; details: ref Leaver et al., 2009; cited from earlier work
# [12] = reserpinized rats, co-treatment with L-DOPA/carbidopa 20/20 mg/kg
# [13] = rats, reserpine 5 mg/kg i.p. 18-20 h before
compound,measurement,setting,value
Oc1cc(O)c2c(c1)O[C@H](c1ccc(O)c(O)c1)[C@@H](O)C2 [(+)-catechin],time required to reach maximal L-DOPA plasma concentration,"[1]; (+)-catechin 400 mg/kg 2 h before L-DOPA/carbidopa 20/20 mg/kg, vs control",modestly shifted to the right
same,effect on striatal 3-OMD levels,[1]; L-DOPA/carbidopa 20/20 mg/kg,markedly reduced
same,effect on striatal dopamine levels,[1]; L-DOPA/carbidopa 20/20 mg/kg,not significantly affected
same,effect on striatal 3-OMD levels,[2]; [12],markedly reduced
same,effect on striatal dopamine levels,[2]; [12],restored to levels comparable to those in normal rats
same,effect on glutamate-induced cell death (cell viability),[3],abrogated cell death in a concentration-dependent manner
same,effect on glutamate-induced accumulation of intracellular ROS,[4],reduced
same,effect on transcriptional activity of NF-κB,[5],significantly attenuated
same,kainic acid-induced increase in GFAP expression in astrocytes,"[6]; (+)-catechin 400 mg/kg 30 min before i.c.v. kainic acid, 24 h, CA3",reduced
same,effect on kainic acid-induced seizure behavior,[6]; (+)-catechin 30 min before i.c.v. kainic acid,no appreciable behavioral differences
same,protective effect in 6-hydroxydopamine-induced neuronal damage model,[7],did not show any appreciable protective effect
same,effect on plasma 3-OMD levels,[8],significantly reduced
same,effect on striatal 3-OMD levels,[8],significantly reduced
same,effect on striatal dopamine levels,[8],only slightly changed
Oc1cc(O)c2c(c1)O[C@H](c1ccc(O)c(O)c1)[C@H](O)C2 [(−)-epicatechin],IC50,[9],10.7 ± 6.7 µM
same,concentration at 30 min,[10],88.6 ± 39.2 µM
same,effect on plasma 3-OMD levels,[8],did not have a similar effect
same,effect on striatal 3-OMD levels,[8],no significant change
same,effect on striatal dopamine levels,[8],no significant change
"O=C(O[C@@H]1Cc2c(O)cc(O)cc2O[C@@H]1c1cc(O)c(O)c(O)c1)c1cc(O)c(O)c(O)c1 [EGCG, (−)-epigallocatechin-3-gallate]",effect in 6-hydroxydopamine-induced neurotoxicity model,[11],ineffective
O=c1c(O)c(-c2ccc(O)c(O)c2)oc2cc(O)cc(O)c12 [quercetin],IC50,[9],1.9 ± 0.4 µM
same,concentration at 30 min,[10],12.6 ± 0.1 µM
same,effect on plasma 3-OMD levels,[8],did not have a similar effect
same,effect on striatal 3-OMD levels,[8],no significant change
same,effect on striatal dopamine levels,[8],no significant change
"COC(=O)[C@H]1[C@H]2C[C@@H]3c4[nH]c5cc(OC)ccc5c4CCN3C[C@H]2C[C@@H](OC(=O)c2cc(OC)c(OC)c(OC)c2)[C@@H]1OC [reserpine, reference compound]",decrease of striatal dopamine levels compared to normal control animals,[2]; [13],over 80%
same,striatal dopamine levels relative to non-reserpinized control rats,[2]; [13],approximately 20%
